Laboratory results from a melting point compilation (Tetko et al.; mined from patent text by program, amines drawn as free bases though some values may be those of a salt).

Row | Structure (SMILES) | melting point [°C]
1 | COc1cc(Oc2cccc(C(F)(F)F)c2)nc(C(=O)NN=C(C)c2ccccc2)c1 | 181 to 182
2 | CCc1cc2c(ccc(=O)n2Cc2ccc(-c3ccccc3C(=O)O)cc2)c(CC)n1 | 238 to 240
3 | CCCCCCCCCCCCCCCCC=Cc1ccc(O)c(C(=O)O)c1 | 95
4 | CSC(C)(C(=O)O)c1ccc2oc(Cc3nc(-c4ccccc4)oc3C)cc2c1 (stereo not given) | 178 to 179
5 | O=C(Cn1nc(-c2ccccc2O)nc1-c1ccccc1O)NCCO | 208 to 211
6 | COC(=O)c1c(C)cc(-c2ccccc2)nc1-c1cccc([N+](=O)[O-])c1 | 105 to 106
7 | CSc1ccc(-c2nc(O)c(C(=O)Nc3ccc(C)cc3)c(SC)n2)cc1 | 302 to 305
8 | COc1ccc2c(c1)sc1ncc(C=O)n12 | 168 to 169
9 | O=C(O)CCCc1ccc(NS(=O)(=O)c2ccc(Br)cc2)cn1 | 188 to 190
10 | CS(=O)(=O)Nc1cccc(Nc2nc(NCCc3c[nH]cn3)c3nc[nH]c3n2)c1 | 205 to 210
11 | N#Cc1ccc(C(=O)NNc2c(Cl)cc(C(F)(F)F)cc2Cl)cc1 | 185 to 186
12 | O=C(c1ccn2c1CSC2c1cccnc1)c1c[nH]c2cc(Cl)ccc12 (stereo not given) | 263 to 265
13 | CC(C)Oc1ccc(-n2c(C(=O)O)c(C(=O)O)c3cc(Oc4ncccc4C(N)=O)ccc32)cc1 | 236 to 238
14 | O=C(O)COc1c(Cl)cc(Cl)cc1Cl | 180 to 183
15 | CN(C)c1ccc2sccc2c1 | 52 to 54
16 | C1=C(c2c[nH]c3ccccc23)CCN(CC2COc3ccc4c(c3O2)CCO4)C1 (stereo not given) | 207 to 209
17 | Cc1ccc(NS(=O)(=O)c2ccc(N3CCNC3=O)cc2)c(C)c1 | 238 to 239
18 | CNc1ccccc1C(=O)n1nc(O)c2cc(N)ccc21 | 169 to 170
19 | CCCCCCCCCCCC(=O)NCCO | 80 to 84
20 | COc1cc(O)ccc1[N+](=O)[O-] | 142
21 | CN1CCOc2ccc(S(=O)(=O)n3c(Cc4ccc(C(=O)O)s4)cc4cc(C(F)(F)F)ccc43)cc21 | 120 to 144
22 | COc1ccc(C(=O)c2ccccc2C=O)cc1 | 90 to 91

Row | Structure (SMILES) | melting point [°C]
23 | CS(=O)(=O)c1ccc(C(Cc2ccc(F)cc2)C(=O)Nc2nc3ccccc3o2)cc1 (stereo not given) | 109 to 110
24 | COc1cccc(-c2nc(-c3ccccc3)c3ncc(Cl)cc3n2)c1 | 112 to 113
25 | CCCCc1nc2c(N)nc3cccnc3c2n1CCCCN1CC=Cc2cc(C(N)=O)ccc21 | 190 to 191
26 | Cc1ccc(-n2c(-c3ccc(Br)cc3)ccc2-c2ccc(Br)cc2)cc1 | 262 to 264
27 | Cc1nc2c(CCc3ccccc3)cccn2c1CC#N | 120 to 123
28 | COc1cc2c(cc1C(F)(F)F)N(C(=O)Nc1cccc(-c3cncnc3)c1)CC2 | 226 to 228
29 | CC1=c2c(cc3c(c2C)C=C(C(=O)OCc2ccccc2)N=3)N=C1C(=O)OCc1ccccc1 | 197 to 200
30 | Clc1cccc(Nc2ncnc3[nH]nc(NCc4ccc5c(c4)OCO5)c23)c1 | 220 to 222
31 | Cc1ccc(NC(=O)c2cc([N+](=O)[O-])ccc2NC(=O)CF)c(C)c1 | 227 to 229
32 | O=C(Oc1ccccc1)c1cccc([N+](=O)[O-])c1Cl | 46 to 48
33 | CCOCN(C(=O)N(COCc1ccccc1)c1nc(OCC(F)(F)F)cc(OCC(F)(F)F)n1)c1ccc(C(F)(F)F)cc1 | 62 to 65
34 | Nc1ncccc1OCc1c(Cl)cccc1Cl | 141 to 142
35 | O=C(O)COc1cccc(NCc2nc(-c3ccccc3)c(-c3ccccc3)o2)c1 | 146 to 151
36 | Clc1cc2nc(NC3=NCCN3)[nH]c2c(Cl)c1Cl | 324 to 326
37 | Cc1cc(C#Cc2ccc(F)cc2)nc(Oc2cc(C(F)(F)F)nn2C)c1 | 86 to 87
38 | O=C(O)c1cccnc1Oc1cccc(C(F)(F)F)c1 | 149 to 151
39 | CNC(=NC#N)NCCCSc1nccc(NC(N)=NCC(F)(F)F)n1 | 159 to 160
40 | CCc1ncc(CCCOc2ccc(-c3nnn(C)n3)cc2)n1C | 115 to 117
41 | CC(c1ccc(F)cc1)N1CC(C)(C)C(Oc2ccc(C#N)c(C(F)(F)F)c2)C1=O (stereo not given) | 82 to 83
42 | Cc1ccc(C(=O)C(=O)c2ccncc2)cc1 | 65
43 | C=CCCC(O)=C(C#N)C(=O)Nc1ccc(C(F)(F)F)cc1 | 145

More lines, now with the values ahead:

Row | melting point [°C] | Structure (SMILES)
44 | 140 | Cc1cccc(NC(=O)NCC(=O)N(CC(=O)OC(C)(C)C)c2cccc(C(F)(F)F)c2)c1
45 | 208 to 210 | CN(C)CC(=O)N1c2ccccc2NC(=O)c2cncnc21
46 | 216 to 218 | Clc1ccc2c3c(cnc2c1)OC1(C=N3)CCCCC1
47 | 265 | O=C(O)[C@@H]1C[C@H]2C[C@H](CCS(=O)(=O)O)CC[C@H]2CN1 (racemic)
48 | 78 | COC(=O)c1ccc(C=C(CBr)C(=O)OC(C)(C)C)cc1
49 | 82 | CCN(CC)C(=O)Nc1ccc(S(=O)(=O)N2C(=O)C(CCCN(C)C)(c3ccccc3F)c3cc(C)c(OC)cc32)cc1F (stereo not given)
50 | 84 | CCCCOc1ccc(S(=O)(=O)C2(C(=O)NO)CCN(CCCOc3ccccc3)CC2)cc1
51 | 174 to 176 | Cc1cc(N2CCN(CC(=O)c3ccccc3)C2=O)sc1C(=O)NCc1cccnc1
52 | 169 to 170 | CN(CC1(C)Cn2cc([N+](=O)[O-])nc2O1)C(=O)OCc1ccc(F)cc1 (stereo not given)
53 | 284 | Cn1cc(-c2cc(-c3cnc4c(c3)CCC(=O)N4)ccn2)n(-c2ccc(C(C)(C)C#N)cc2)c1=O
54 | 80 to 82 | CCOC(=O)C(=Cc1ccc(F)cc1)C(C)=O
55 | 68 | COC(=O)Cc1ccc(OCC(C)NCC(O)c2cccc(Cl)c2)c(O)c1 (stereo not given)
56 | 180 to 181 | CC(CC(C(C)C(C)(C)O)N(C)C)C1CCC2C(O)CCCC12C (stereo not given)
57 | 164 to 166 | CC(C)c1cccc(C(C)C)c1NC(=O)CNC(c1ccccc1)c1cccs1 (stereo not given)
58 | 60 to 62 | COC(=O)C(Oc1ccc2c(c1)CCC2)c1ccc(OCCCOc2ccc(Cl)cc2)cc1 (stereo not given)
59 | 185 to 195 | COC(=O)C1=C(C)NC(CC(=O)N2CCN(C3CCCC3)CC2)=C(C(=O)OC)C1c1c(Cl)cccc1Cl (stereo not given)
60 | 116 | N#Cc1cccc(N2Cc3ccccc3CN(C3CCNCC3)C2=O)c1
61 | 49 to 51 | COc1cc(Br)c(C2=NC(C)(C)CO2)cc1OC
62 | 104 to 105 | COc1ccccc1[C@H](c1cccc2ccccc12)[C@@](C)(C#N)C(=O)N1CCN(c2cccc(C)c2)CC1
63 | 80 to 85 | CCCCN(C(=O)N[C@@H](CC(=O)O)c1ccc2c(c1)OCO2)C1CC(=O)N(Cc2ccccc2)C1=O (stereo not given in full)
64 | 87 to 89 | COc1ccc(OC(=O)Cl)cc1C12CC3CC(CC(C3)C1)C2
65 | 119 to 120 | CC(C)OC(=O)c1cc(N2C(=O)C(C)C(C)N(C)C2=O)c(F)cc1Cl (stereo not given)
66 | > 250 | CC1(C)Oc2ccc(-c3c(N)c(=O)c3=O)cc2[C@@H](N2Cc3ccccc3C2=O)[C@@H]1O (relative stereo)
67 | 181 to 183 | O=C(O)c1ccc(C(=O)N2CCOCC2)nc1
68 | 136 to 137 | COc1ccc(C(=O)N(C)C2N(C)C(c3ccc(F)cc3)=NC2(C(F)(F)F)C(F)(F)F)cc1 (stereo not given)
69 | 129 to 131 | CCC1CCc2nc3c(c(N)c2C1=O)c1ccccc1n3C (stereo not given)

Row | melting point [°C] | Structure (SMILES)
70 | 210 to 211 | C[Si](C)(C)c1cccc2c1S(=O)c1c(cccc1[Si](C)(C)C)S2
71 | 116 to 126 | CN(C)S(=O)(=O)Oc1cccc2c1S(=O)(=O)N=C2C1=C(O)C(C(C)(C)C)N(Cc2ccc(F)cc2)C1=O (stereo not given)
72 | 129 | CC(=O)Nc1cc(Cl)ccc1CCOC(C)=O
73 | 194 to 196 | COc1ccc(C(CC(C)=O)N2C(=O)c3cccc(N(S(C)(=O)=O)S(C)(=O)=O)c3C2=O)cc1OC (stereo not given)
74 | 94 to 101 | CN(Cc1cc2c(=O)c(C(=O)NCc3ccc(Cl)cc3)cn(C)c2o1)CC(O)c1ccco1 (stereo not given)
75 | 90 to 92 | CCOP(=O)(OCC)C(OS(=O)(=O)c1ccc(C)cc1)c1cccc([N+](=O)[O-])c1 (stereo not given)
76 | 247 | O=C(N[C@H]1CC[C@H](CCN2CCC(c3cccc4c3CCO4)CC2)CC1)c1ccc(N2CCOCC2)cc1
77 | 140 to 141 | COc1ccc2c(c1OC)CN(C=O)CCc1cc(OCc3ccccc3)ccc1CC2
78 | 138 | COc1ccc(C2=NO[C@]3(CCOC3)C2)cc1OC1Cc2ccccc2C1
79 | 91 to 93 | CC(C)(C)[Si](C)(C)O[C@H](/C=C/[C@@H]1[C@H]2CC(=O)O[C@H]2C[C@H]1O[Si](C)(C)C(C)(C)C)COc1cccc(C(F)(F)F)c1
80 | 112 | CCCCNC(=O)Oc1cccc(NC(=O)CC(C)=O)c1
81 | 101 | CCOc1ccc([N+](=O)[O-])c(NC)n1
82 | 64 to 66 | Cc1ccc2c(c1)NC(=O)[C@H](N)C[C@@H]2C1CCCCC1 (relative stereo)
83 | 112 to 113 | CC(C)(C)OC(=O)COc1ccc(/C=C/C(=O)C(F)(F)F)cc1
84 | 190 to 195 | CCCCCc1ccc(C(N)C(=O)O)[nH]1 (stereo not given)
85 | 140 to 145 | CN(NC(=O)OC(C)(C)C)C(=O)C(C)(C)ON1C(=O)c2ccccc2C1=O
86 | 125 to 150 | CC(C)(C)[NH+]([O-])C(=O)Nc1ccnc(-c2ccncc2)n1 (stereo not given)
87 | 101 | COC(=O)C(=CN(C)C)N(C)c1nccc(-c2ccccc2)n1
88 | 174 to 175 | CN(C)C=Nc1c(C#N)c(=O)n(C)c(=O)n1C
89 | 145 to 147 | Clc1ccc2c(c1)Cn1cccc1C(C1CCN(CCc3ccccc3)CC1)O2 (stereo not given)
90 | 84 to 86 | CCCCCCNC(=O)OC1CCN(C(=O)OCCCCCCNC(=O)Oc2ccc(Oc3ccccc3)cc2)CC1
91 | 136 to 138 | NC(=O)N1CCCC(CC(=O)c2ccc(F)cc2)C1 (stereo not given)
92 | 106 to 112 | CCNC(=S)NC1CCCc2sccc21 (stereo not given)
93 | 70 to 75 | C[C@H](O)[C@@H](CCc1cccc(Cl)c1Cl)n1cnc(C(N)=O)c1
94 | 150 to 152 | CN(c1cccc2cc(C(=O)NCC(C)(CN3CCOCC3)SCc3ccccc3)[nH]c12)S(=O)(=O)c1cccs1 (stereo not given)
95 | 33 | CCCCCc1ncc([C@H]2CC[C@H](CCC)CC2)cn1
